From US7993822B2, “Aging biomarker” (Vlaams Interuniversitair Instituut Voor Biotechnologie VZW, priority 2004, dated 2011)

Assays:
rat [1] = experiment: Biochemical assay in serum (ALAT, ASAT, TBil) of CCl4 exposed rats, with or without Interferon-γ co-treatment; type: in vivo, rat (Wistar)
Source text: (§1) The repeated administration of CCl4 is widely employed as an animal model of human hepatic fibrosis/cirrhosis. In order to evaluate whether the sugar marker has high predictive values for the liver damage, we tested N-glycan profiling on the CCl4 treated, co-treated with INF-γ and control rat groups (Wistar). Take into account that N-glycosylation in animals is species-specific, we therefore profiled the N-linked glycan to get a fingerprinting in rat serum. […] N-glycan peaks of P1, P3, P5, P6, P7, P9 are consistent with that of human. However, four peaks (rP2, rP4, rP8 and rP10) are rat-specific N-linked sugars.
Moreover, the rat serum alanine aminotransferase activity (ALAT), aspartate aminotransferase activity (ASAT) and total bilirubin concentration (TBil) were analysed using routine photometric tests on a Hitachi 747 analyser (Boehringer Mannheim GmbH, Diagnostica) for subsequent assessment of hepatic injury and liver function, respectively.

rat [2] = experiment: Serum N-glycan profile of rats treated with CCl4 and co-treated with Interferon-γ; type: in vivo, rat (Wistar)
Protocol: The glycoproteins were denatured by addition of at least 2 volumes RCM buffer (8 M urea, 360 mM Tris, pH 8.6, 3.2 mM EDTA) to each sample in a final volume of at least 50 μl, and the samples were then placed at 50° C. for 1 h. The N-linked glycans present on the serum proteins in 5 μl of serum were released after binding the protein to an Immobilon P-lined 96-well plate. They were then derivatized with APTS (Molecular Probes, Eugene, Calif., USA) and analyzed on an ABI 377A DNA sequencer (Applied Biosystems).
as §1

[3] = rat, repeated administration of CCl4, Week 12, vs control group
[4] = CCl4 treated rat co-treated with INF-γ, Week 12, vs CCl4 group

| Molecule | serum alanine aminotransferase activity (ALAT) (rat [1]; [3]) | serum aspartate aminotransferase activity (ASAT) (rat [1]; [3]) | total bilirubin concentration (TBil) (rat [1]; [3]) | trends of six serum N-glycan peaks (rat [2]; CCl4 treated rat group compared to control group) | N-glycan profile between CCl4 group and control group (rat [2]; rat, Week 9, peaks P4 and P5 even in Week 6) | liver damage caused by CCl4 treatment (rat [1]; CCl4 treated rat co-treated with INF-γ, Week 12) | serum ALAT level (rat [1]; [4]) | serum ASAT level (rat [1]; [4]) | serum bilirubin level (rat [1]; [4]) | changes of serum N-glycan peaks (rat [2]; INF-γ co-treated group compared to CCl4 group) |
| --- | --- | --- | --- | --- | --- | --- | --- | --- | --- | --- |
| ClC(Cl)(Cl)Cl [CCl4] | significantly raised | significantly raised | significantly raised | either increased or decreased | different trends | – | – | – | – | – |
| Interferon-γ (protein, UniProt P01581 23-156, looked up, Interferon-γ co-treatment of CCl4 treated rats) Interferon gamma: QGTLIESLESLKNYFNSSSMDAMEGKSLLLDIWRNWQKDGNTKILESQIISFYLRLFEVLKDNQAISNNISVIESHLITNFFSNSKAKKDAFMSIAKFEVNNPQIQHKAVNELIRVIHQLSPESSLRKRKRSRC | – | – | – | – | – | partially protected | decreasing levels | decreasing levels | decreasing levels | less slop changes than CCl4-group |
